Tests used:
[1] = target: COX-1 (Homo sapiens, UniProt P23219); test: COX-1 enzyme activity in human whole blood (A23187 stimulated, thromboxane B2 EIA); assay type: cell-based; set-up: Human blood (≈50 mL) from male or female donors who had not received any aspirin or NSAIDs for 14 days; endogenous in cells; host or cells: human whole blood from donors; conditions: for COX-1 Inhibition (% at 100 μM): test compound at 100 μM
Protocol: (§1) The assay for COX-1 and COX-2 enzyme activity, in the human whole blood was performed as described in Brideau et al., Inflamm Res., 45: 68-74 (1996)). Human blood (≈50 mL) from male or female donors who had not received any aspirin or NSAIDs for 14 days was collected at two local area blood donor centers and placed in polypropylene syringes containing sodium heparin (20 units per mL blood, final concentration). The blood was transported to the laboratory on ice packs and used within 1.5 hours of collection. Upon receipt in the laboratory, the blood was allowed to come to room temperature for 15 minutes prior to distribution in 1 mL aliquots per well of 24 well tissue culture plates. The plates were then placed on a gently rotating platform shaker in a 5% CO2 incubator at 37° C. for 15 minutes. Test compounds were dissolved in DMSO, at 1000 fold the final desired concentration, and further diluted, as indicated, in DMSO. One μL of each dilution of the test compound was added per well, in duplicate wells; wells not receiving test compound (e.g., basal, background or control wells) received 1 μL DMSO.
(§2) To induce COX-2, lipopolysaccharide (LPS) from E. coli (LPS, serotype 026:B6 or serotype 0127:B8, Sigma Chemical Co., St. Louis, Mo., Catalogue No. L3755 or L3129, respectively) was added at 10 μg/mL (2 μL of 5 mg/mL LPS in DMSO) to appropriate wells 15 minutes after the addition of the test compound. (Basal or background wells not incubated with LPS received 2 μL of DMSO.) For the stimulation of COX-1, the calcium ionophore, A23187 (free acid from Sigma Chemical Co., St. Louis, Mo., Catalogue No. C7522) was added at 25 μM (1 μL of 25 mM stock in DMSO) to separate wells 4.5 hours after the addition of the test compound. (Again, basal, background or control wells not stimulated with A23187 received 1 μL of DMSO.) At 5 hours after the addition of the test compound, all incubations were terminated by placement on ice and the addition of 2 mM EGTA (100 μL of 20 mM EGTA, tetrasodium, in PBS (phosphate buffered saline) without Ca^++ and Mg^++, pH 7.2)). The resulting solutions, were transferred by polyethylene transfer pipettes to 15 mL polypropylene centrifuge tubes and centrifuged at 1200 g for 10 minutes at 4° C. One hundred μL of plasma was removed from each blood sample and added to 1 mL of methanol in new 15 mL polypropylene centrifuge tubes, vortexed, and stored overnight at −20° C. The next day, the samples were centrifuged at 2000 g for 10 minutes at 4° C. and the supernatants transferred to glass tubes and evaporated to dryness. The samples were assayed for thromboxane B2 using EIA kits supplied by Cayman Chemical Co. (Ann Arbor, Mich., Catalogue No. 519031) in duplicate wells after reconstitution with EIA Buffer and appropriate dilution (2000 fold for COX-1 and 500 fold for Cox-2 samples).

[2] = target: T1, COX-2 (Homo sapiens, UniProt P35354); test: COX-2 enzyme activity in human whole blood (LPS induced, thromboxane B2 EIA); assay type: cell-based; set-up: Human blood (≈50 mL) from male or female donors who had not received any aspirin or NSAIDs for 14 days; endogenous in cells; host or cells: human whole blood from donors, LPS-induced; conditions: test compound at 10 μM
T1 sequence (P35354 18-604): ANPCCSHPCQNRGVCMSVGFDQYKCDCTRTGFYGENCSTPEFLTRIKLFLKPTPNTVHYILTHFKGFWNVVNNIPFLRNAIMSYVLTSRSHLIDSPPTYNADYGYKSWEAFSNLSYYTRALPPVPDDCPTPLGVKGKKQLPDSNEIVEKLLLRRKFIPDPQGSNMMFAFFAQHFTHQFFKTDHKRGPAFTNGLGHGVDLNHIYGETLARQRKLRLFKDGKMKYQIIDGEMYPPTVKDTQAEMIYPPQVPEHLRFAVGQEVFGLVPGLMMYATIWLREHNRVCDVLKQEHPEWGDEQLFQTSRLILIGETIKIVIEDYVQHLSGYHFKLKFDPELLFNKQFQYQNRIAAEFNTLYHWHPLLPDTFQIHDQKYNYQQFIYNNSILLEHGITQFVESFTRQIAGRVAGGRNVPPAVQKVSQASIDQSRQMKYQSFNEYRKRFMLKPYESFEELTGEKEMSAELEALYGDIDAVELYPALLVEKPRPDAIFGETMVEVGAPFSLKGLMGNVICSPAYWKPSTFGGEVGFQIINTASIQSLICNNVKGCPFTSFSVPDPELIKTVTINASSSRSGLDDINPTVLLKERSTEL
Protocol: as §1, with “Human” for “The assay for COX-1 and COX-2 enzyme activity, in the human whole blood was performed as described in Brideau et al., Inflamm Res., 45: 68-74 (1996)). Human”
as §2, with “(Basal or background wells not incubated with LPS received 2 μL of DMSO.) For the stimulation of COX-1, the calcium ionophore, A23187 (free acid from Sigma Chemical Co., St. Louis, Mo., Catalogue No. C7522) was added at 25 μM (1 μL of 25 mM stock in DMSO) to separate wells 4.5 hours after the addition of the test compound.” left out, “dryness.” for “dryness. The samples were assayed for thromboxane B2 using EIA kits supplied by Cayman Chemical Co. (Ann Arbor, Mich., Catalogue No. 519031) in duplicate wells after reconstitution with EIA Buffer and appropriate dilution (2000 fold for COX-1 and 500 fold for Cox-2 samples).”

Chain of COX-1 (P23219 24-599): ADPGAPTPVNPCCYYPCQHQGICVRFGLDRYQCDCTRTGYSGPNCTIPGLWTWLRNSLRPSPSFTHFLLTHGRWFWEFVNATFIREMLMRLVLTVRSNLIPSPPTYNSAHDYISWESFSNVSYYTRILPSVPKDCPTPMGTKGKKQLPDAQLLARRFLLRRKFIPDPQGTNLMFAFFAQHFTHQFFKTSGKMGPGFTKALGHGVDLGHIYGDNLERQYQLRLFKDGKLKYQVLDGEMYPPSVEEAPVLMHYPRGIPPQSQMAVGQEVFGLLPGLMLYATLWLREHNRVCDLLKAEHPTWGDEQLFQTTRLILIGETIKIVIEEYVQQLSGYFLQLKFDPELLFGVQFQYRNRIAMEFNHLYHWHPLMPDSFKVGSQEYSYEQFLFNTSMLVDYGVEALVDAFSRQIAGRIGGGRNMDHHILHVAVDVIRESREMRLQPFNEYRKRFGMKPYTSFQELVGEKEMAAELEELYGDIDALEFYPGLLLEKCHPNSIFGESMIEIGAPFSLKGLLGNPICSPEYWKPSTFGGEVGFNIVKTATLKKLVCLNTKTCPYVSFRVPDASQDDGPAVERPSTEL

Molecule	COX-1 Inhibition (% at 100 μM) [1]	COX-2 Inhibition (% at 10 μM) [2]	COX-1 Inhibition (% at 30 μM) ([1]; test compound at 30 μM)
1-(7-((3,5-Difluorophenyl)methyl)-2-((nitrooxy)methyl)(2H, 3H-benzo(3,4-e)1, 4-dioxin-6-yl))-4-(methylsulfonyl)benzene and 1-(7-((3,5-difluorophenyl)methyl)-3-((nitrooxy)methyl)(2H, 3H-benzo(e)1,4-dioxin-6-yl))-4-(methylsulfonyl)benzene [Example 19b]	65%	35%	–
1-(7-((3,5-Difluorophenyl)methyl)-2-(hydroxymethyl)(2H, 3H-benzo(3,4-e)1,4-dioxin-6-yl))-4-(methylsulfonyl)benzene and 1-(7-((3,5-difluorophenyl)methyl)-3-(hydroxymethyl)(2H, 3H-benzo(e)1,4-dioxin-6-yl))-4-(methylsulfonyl)benzene [Example 19a]	45%	15%	–
CS(=O)(=O)c1ccc(-c2cc3c(cc2C(=O)C2CCCCC2)OCO3)cc1 [Example 2c, Cyclohexyl 6-(4-(methylsulfonyl)phenyl)(2H-benzo(d)1,3-dioxolan-5-yl) ketone]	–	85%	70 (at 30 μM) %
CS(=O)(=O)c1ccc(-c2cc3c(cc2Cc2ccccc2)OCO3)cc1 [Example 3c, 4-(Methylsulfonyl)-1-(6-benzyl(2H-benzo(3,4-d)1,3-dioxolan-5-yl))benzene]	65%	50%	–
CS(=O)(=O)c1ccc(-c2cc3c(cc2Cc2ccccc2F)OCO3)cc1 [Example 4c, 1-(6-((2-Fluorophenyl)methyl)(2H-benzo(3,4-d)1,3-dioxolan-5-yl))-4-(methylsulfonyl)benzene]	70%	60%	–
CS(=O)(=O)c1ccc(-c2cc3c(cc2C(=O)c2ccccc2F)OCO3)cc1 [Example 4d, 2-Fluorophenyl 6-(4-(methylsulfonyl)phenyl)(2H-benzo(d)1,3-dioxolan-5-yl) ketone]	70%	90%	–
CS(=O)(=O)c1ccc(-c2cc3c(cc2Cc2cccc(F)c2)OCO3)cc1 [Example 5c, 1-(6-((3-Fluorophenyl)methyl)(2H-benzo(3,4-d)1,3-dioxolan-5-yl))-4-(methylsulfonyl)benzene]	55%	90%	–
CS(=O)(=O)c1ccc(-c2cc3c(cc2C(=O)c2cccc(F)c2)OCO3)cc1 [Example 5d, 3-Fluorophenyl 6-(4-(methylsulfonyl)phenyl)(2H-benzo(d)1,3-dioxolan-5-yl) ketone]	70%	95%	–
CCOC(=O)/C(C)=C/c1cc2c(cc1-c1ccc(S(C)(=O)=O)cc1)OCO2 [Example 7d, Ethyl (2E)-2-methyl-3-(6-(4-(methylsulfonyl)phenyl)(2H-benzo(d)1,3-dioxolan-5-yl))prop-2-enoate]	5%	35%	–
C/C(=C\c1cc2c(cc1-c1ccc(S(C)(=O)=O)cc1)OCO2)CO [Example 7e, 1-(6-((1E)-3-Hydroxy-2-methylprop-1-enyl)(2H-benzo(3,4-d)1,3-dioxolan-5-yl))-4-(methylsulfonyl)benzene]	20%	10%	–
CS(=O)(=O)c1ccc(-c2cc3c(cc2CC2CCCCCC2)OCO3)cc1 [Example 11c, 4-(6-(Cycloheptylmethyl)(2H-benzo(3,4-d)1,3-dioxolan-5-yl))-1-(methylsulfonyl)benzene]	40%	80%	–
Cc1cccc(C(=O)c2cc3c(cc2-c2ccc(S(C)(=O)=O)cc2)OCO3)c1 [Example 12c, 3-Methylphenyl 6-(4-(methylsulfonyl)phenyl)(2H-benzo(d)1,3-dioxolan-5-yl)ketone]	90%	90%	–
CS(=O)(=O)c1ccc(-c2cc3c(cc2C(=O)c2cccc(CO[N+](=O)[O-])c2)OCO3)cc1 [Example 12d, 6-(4-(methylsulfonyl)phenyl)(2H-benzo(d)1,3-dioxolan-5-yl)3-((nitrooxy)methyl)phenylketone]	20%	20%	–
COc1cccc(C(=O)c2cc3c(cc2-c2ccc(S(C)(=O)=O)cc2)OCO3)c1 [Example 13c, 3-Methoxyphenyl-6-(4-(methylsulfonyl)phenyl)(2H-benzo(d)1,3-dioxolan-5-yl) ketone]	90%	75%	–
Cc1ccc(F)c(C(=O)c2cc3c(cc2-c2ccc(S(C)(=O)=O)cc2)OCO3)c1 [Example 14c, 2-Fluoro-5-methylphenyl6-(4-(methylsulfonyl)phenyl)(2H-benzo(d)1,3-dioxolan-5-yl)ketone]	90%	75%	–
CS(=O)(=O)c1ccc(-c2cc3c(cc2C(=O)c2cc(F)cc(F)c2)OCO3)cc1 [Example 16, 4-(1-(3′,5′-Difluorophenyl)-1-oxomethyl)-1,2-methylenedioxy-5-(4-methylsulfonylphenyl)benzene]	50%	100%	–
